{"source": "patent US20240166652A1", "about": "“MODULATORS OF THE INTEGRATED STRESS PATHWAY” (Calico Life Sciences LLC, priority 2017, published 2024)", "data": [{"test_system": "ATF4 luciferase reporter in HEK293T cells", "assay": "ATF4-Luc assay (ATF4 luciferase reporter, tunicamycin-treated HEK293T cells)", "format": "cell-based, human", "conditions": "Homo sapiens, HEK-293T; HEK293T cells carrying the ATF4 luciferase reporter, 1 μg/mL tunicamycin, 7 hours", "units": {"EC50": "nM"}, "values": [{"smiles": "CN(C(=O)COc1ccc(C(F)(F)F)nc1)C12CCC(NC(=O)COc3ccc(Cl)c(F)c3)(CC1)C[C@@H]2O", "note": "[Compound 377, N-{(2S)-4-[2-(4-chloro-3-fluorophenoxy)acetamido]-2-hydroxybicyclo[2.2.2]octan-1-yl}-N-methyl-2-{[6-(trifluoromethyl)pyridin-3-yl]oxy}acetamide]", "EC50": "500 to 2000"}, {"smiles": "O=C(COc1ccnc(C(F)F)c1)NC12CC(NC(=O)COc3ccc(Cl)c(F)c3)(C1)C2", "note": "[Compound 378, 2-(4-chloro-3-fluorophenoxy)-N-[3-(2-{[2-(difluoromethyl)pyridin-4-yl]oxy}acetamido)bicyclo[1.1.1]pentan-1-yl]acetamide]", "EC50": "10 to 50"}, {"smiles": "O=C(COc1ccc(F)c(F)c1)NC12CC(NC(=O)COc3ccc4c(c3)OC(F)(F)O4)(C1)C2", "note": "[Compound 379, 2-[(2,2-difluoro-2H-1,3-benzodioxol-5-yl)oxy]-N-{3-[2-(3,4-difluorophenoxy)acetamido]bicyclo[1.1.1]pentan-1-yl}acetamide]", "EC50": "< 10"}, {"smiles": "O=C(COc1ccc(Cl)c(F)c1)NC12CCC(NC(=O)COc3ccc4c(c3)OC(F)(F)O4)(C1)C2", "note": "[Compound 380, 2-(4-chloro-3-fluorophenoxy)-N-(4-{2-[(2,2-difluoro-2H-1,3-benzodioxol-5-yl)oxy]acetamido}bicyclo[2.1.1]hexan-1-yl)acetamide]", "EC50": "10 to 50"}, {"smiles": "Cn1ccc(OCC(=O)NC23CC(NC(=O)COc4ccc(Cl)c(F)c4)(C2)C3)n1", "note": "[Compound 381, 2-(4-chloro-3-fluorophenoxy)-N-(3-{2-[(1-methyl-1H-pyrazol-3-yl)oxy]acetamido}bicyclo[1.1.1]pentan-1-yl)acetamide]", "EC50": "500 to 2000"}, {"smiles": "O=C(COc1ccc(Cl)c(F)c1)NC12CCC(NC(=O)COc3cnc(C(F)F)cn3)(CC1)[C@@H](O)C2", "note": "[Compound 382, 2-(4-chloro-3-fluorophenoxy)-N-[(3S)-4-(2-{[5-(difluoromethyl)pyrazin-2-yl]oxy}acetamido)-3-hydroxybicyclo[2.2.2]octan-1-yl]acetamide]", "EC50": "> 2000"}, {"smiles": "O=C(COc1ccc2c(c1)OC(F)(F)O2)NC12CC(NC(=O)COc3cnc(C(F)F)cn3)(C1)C2", "note": "[Compound 383, 2-[(2,2-difluoro-2H-1,3-benzodioxol-5-yl)oxy]-N-[3-(2-{[5-(difluoromethyl)pyrazin-2-yl]oxy}acetamido)bicyclo[1.1.1]pentan-1-yl]acetamide]", "EC50": "> 2000"}, {"smiles": "O=C(COc1ccc(Cl)c(F)c1)NC12CC(NC(=O)COc3cnc(C(F)F)cn3)(C1)C2", "note": "[Compound 384, 2-(4-chloro-3-fluorophenoxy)-N-[3-(2-{[5-(difluoromethyl)pyrazin-2-yl]oxy}acetamido)bicyclo[1.1.1]pentan-1-yl]acetamide]", "EC50": "> 2000"}, {"smiles": "Cc1cc(OCC(=O)NC23CC(NC(=O)COc4ccc(Cl)c(F)c4)(C2)C3)n(C)n1", "note": "[Compound 385, 2-(4-chloro-3-fluorophenoxy)-N-(3-{2-[(1,3-dimethyl-1H-pyrazol-5-yl)oxy]acetamido}bicyclo[1.1.1]pentan-1-yl)acetamide]", "EC50": "500 to 2000"}, {"smiles": "O=C(CNC(=O)c1ccc(OC(F)(F)F)cn1)NC12CC(NC(=O)COc3ccc(Cl)c(F)c3)(C1)C2", "note": "[Compound 386, N-[2-({3-[2-(4-chloro-3-fluorophenoxy)acetamido]bicyclo[1.1.1]pentan-1-yl}amino)-2-oxoethyl]-5-(trifluoromethoxy)pyridine-2-carboxamide]", "EC50": "> 2000"}, {"smiles": "N#CC1CC2(NC(=O)COc3ccc(Cl)c(F)c3)CCC1(NC(=O)COc1ccc(Cl)c(F)c1)CC2", "note": "(stereo not drawn) [Compound 387, N,N′-(2-cyanobicyclo[2.2.2]octane-1,4-diyl)bis[2-(4-chloro-3-fluorophenoxy)acetamide]]", "EC50": "< 10"}, {"smiles": "O=C(COc1ccc(C(F)F)cc1)NC12CC(NC(=O)COc3ccc(Cl)c(F)c3)(C1)C2", "note": "[Compound 388, 2-(4-chloro-3-fluorophenoxy)-N-(3-{2-[4-(difluoromethyl)phenoxy]acetamido}bicyclo[1.1.1]pentan-1-yl)acetamide]", "EC50": "10 to 50"}, {"smiles": "O=C(COc1ccc(C(F)F)cc1)NC12CC(NC(=O)COc3ccc(C(F)F)cc3)(C1)C2", "note": "[Compound 389, N,N′-(bicyclo[1.1.1]pentane-1,3-diyl)bis{2-[4-(difluoromethyl)phenoxy]acetamide}]", "EC50": "250 to 500"}, {"smiles": "O=C(COc1ccc(Cl)c(F)c1)NC12CCC(NC(=O)COc3ccc(Cl)c(F)c3)(CC1)C(C(=O)O)C2", "note": "(stereo not drawn) [Compound 390, 1,4-bis[2-(4-chloro-3-fluorophenoxy)acetamido]bicyclo[2.2.2]octane-2-carboxylic Acid]", "EC50": "50 to 250"}, {"smiles": "O=C(COc1ccc2c(c1)OC(F)(F)O2)NC12CCC(NC(=O)COc3ccc4c(c3)OC(F)(F)O4)(C1)C2", "note": "[Compound 391, N,N′-(bicyclo[2.1.1]hexane-1,4-diyl)bis{2-[(2,2-difluoro-2H-1,3-benzodioxol-5-yl)oxy]acetamide}]", "EC50": "250 to 500"}, {"smiles": "O=C(COc1cccc(OC(F)(F)F)c1)NC12CC(NC(=O)COc3ccc(Cl)c(F)c3)(C1)C2", "note": "[Compound 392, 2-(4-chloro-3-fluorophenoxy)-N-(3-{2-[3-(trifluoromethoxy)phenoxy]acetamido}bicyclo[1.1.1]pentan-1-yl)acetamide]", "EC50": "< 10"}, {"smiles": "O=C(COc1ccc(OC(F)(F)F)cc1)NC12CC(NC(=O)COc3ccc(Cl)c(F)c3)(C1)C2", "note": "[Compound 393, 2-(4-chloro-3-fluorophenoxy)-N-(3-{2-[4-(trifluoromethoxy)phenoxy]acetamido}bicyclo[1.1.1]pentan-1-yl)acetamide]", "EC50": "< 10"}, {"smiles": "Cc1cc(OCC(=O)NC23CCC(NC(=O)COc4ccc(Cl)c(F)c4)(CC2)C[C@@H]3O)cnc1C", "note": "[Compound 394, 2-(4-chloro-3-fluorophenoxy)-N-[(3S)-4-{2-[(5,6-dimethylpyridin-3-yl)oxy]acetamido}-3-hydroxybicyclo[2.2.2]octan-1-yl]acetamide]", "EC50": "< 10"}, {"smiles": "Cc1cc(OCC(=O)NC23CCC(NC(=O)COc4ccc(Cl)c(F)c4)(CC2)C[C@@H]3O)cc(C)n1", "note": "[Compound 395, 2-(4-chloro-3-fluorophenoxy)-N-[(3S)-4-{2-[(2,6-dimethylpyridin-4-yl)oxy]acetamido}-3-hydroxybicyclo[2.2.2]octan-1-yl]acetamide]", "EC50": "500 to 2000"}, {"smiles": "O=C(COc1cccc(OC(F)F)c1)NC12CC(NC(=O)COc3ccc(Cl)c(F)c3)(C1)C2", "note": "[Compound 396, 2-(4-chloro-3-fluorophenoxy)-N-(3-{2-[3-(difluoromethoxy)phenoxy]acetamido}bicyclo[1.1.1]pentan-1-yl)acetamide]", "EC50": "10 to 50"}, {"smiles": "O=C(COc1ccc(OC(F)F)cc1)NC12CC(NC(=O)COc3ccc(Cl)c(F)c3)(C1)C2", "note": "[Compound 397, 2-(4-chloro-3-fluorophenoxy)-N-(3-{2-[4-(difluoromethoxy)phenoxy]acetamido}bicyclo[1.1.1]pentan-1-yl)acetamide]", "EC50": "10 to 50"}, {"smiles": "O=C(COc1ccccc1)NC12CC(NC(=O)COc3ccc(Cl)c(F)c3)(C1)C2", "note": "[Compound 398, 2-(4-chloro-3-fluorophenoxy)-N-[3-(2-phenoxyacetamido)bicyclo[1.1.1]pentan-1-yl]acetamide]", "EC50": "10 to 50"}, {"smiles": "O=C(COc1ccc(C(F)F)nc1)NC12CC(NC(=O)COc3ccc(Cl)c(F)c3)(C1)C2", "note": "[Compound 399, 2-(4-chloro-3-fluorophenoxy)-N-[3-(2-{[6-(difluoromethyl)pyridin-3-yl]oxy}acetamido)bicyclo[1.1.1]pentan-1-yl]acetamide]", "EC50": "10 to 50"}, {"smiles": "O=C(COc1ccc(C(F)(F)F)nc1)NC12CC(NC(=O)COc3ccc(C(F)(F)F)nc3)(C1)C2", "note": "[Compound 400, N,N′-(bicyclo[1.1.1]pentane-1,3-diyl)bis(2-{[6-(trifluoromethyl)pyridin-3-yl]oxy}acetamide)]", "EC50": "50 to 250"}, {"smiles": "O=C(COc1ccc(Cl)c(Cl)c1)NC12CC(NC(=O)COc3ccccn3)(C1)C2", "note": "[Compound 401, 2-(3,4-dichlorophenoxy)-N-(3-{2-[(pyridin-2-yl)oxy]acetamido}bicyclo[1.1.1]pentan-1-yl)acetamide]", "EC50": "10 to 50"}, {"smiles": "O=C(COc1ccc(Cl)c(F)c1)NC12CC(NC(=O)COc3ccccn3)(C1)C2", "note": "[Compound 402, 2-(4-chloro-3-fluorophenoxy)-N-(3-{2-[(pyridin-2-yl)oxy]acetamido}bicyclo[1.1.1]pentan-1-yl)acetamide]", "EC50": "50 to 250"}, {"smiles": "O=C(COc1cccnc1)NC12CCC(NC(=O)COc3ccc(Cl)c(F)c3)(C1)C2", "note": "[Compound 403, 2-(4-chloro-3-fluorophenoxy)-N-(4-{2-[(pyridin-3-yl)oxy]acetamido}bicyclo[2.1.1]hexan-1-yl)acetamide]", "EC50": "500 to 2000"}, {"smiles": "O=C(COc1ccc(Cl)c(F)c1)NC12CCC(NC(=O)COc3ccccn3)(C1)C2", "note": "[Compound 404, 2-(4-chloro-3-fluorophenoxy)-N-(4-{2-[(pyridin-2-yl)oxy]acetamido}bicyclo[2.1.1]hexan-1-yl)acetamide]", "EC50": "500 to 2000"}, {"smiles": "O=C(COc1cccnc1)NC12CC(NC(=O)COc3ccc(Cl)c(Cl)c3)(C1)C2", "note": "[Compound 405, 2-(3,4-dichlorophenoxy)-N-(3-{2-[(pyridin-3-yl)oxy]acetamido}bicyclo[1.1.1]pentan-1-yl)acetamide]", "EC50": "50 to 250"}, {"smiles": "O=C(COc1ccc(Cl)c(F)c1)NC12CC(NC(=O)COc3c(F)cc(F)cc3F)(C1)C2", "note": "[Compound 406, 2-(4-chloro-3-fluorophenoxy)-N-{3-[2-(2,4,6-trifluorophenoxy)acetamido]bicyclo[1.1.1]pentan-1-yl}acetamide]", "EC50": "10 to 50"}, {"smiles": "CC(C)(O)c1ccc(OCC(=O)NC23CC(NC(=O)COc4ccc(Cl)c(F)c4)(C2)C3)cc1", "note": "[Compound 407, 2-(4-chloro-3-fluorophenoxy)-N-(3-{2-[4-(2-hydroxypropan-2-yl)phenoxy]acetamido}bicyclo[1.1.1]pentan-1-yl)acetamide]", "EC50": "50 to 250"}, {"smiles": "O=C(COc1ccc(F)cc1)NC12CC(NC(=O)COc3ccc(Cl)c(F)c3)(C1)C2", "note": "[Compound 408, 2-(4-chloro-3-fluorophenoxy)-N-{3-[2-(4-fluorophenoxy)acetamido]bicyclo[1.1.1]pentan-1-yl}acetamide]", "EC50": "< 10"}, {"smiles": "O=C(COc1ccc(Cl)c(F)c1)NC12CC(NC(=O)COc3ccc(F)cc3F)(C1)C2", "note": "[Compound 409, 2-(4-chloro-3-fluorophenoxy)-N-{3-[2-(2,4-difluorophenoxy)acetamido]bicyclo[1.1.1]pentan-1-yl}acetamide]", "EC50": "< 10"}]}]}
